Results reported in patent publication US8551999B2, “Heterocyclic compound and pharmaceutical composition thereof” (Otsuka Pharmaceutical Co., Ltd., priority 2007, dated 2013).

Molecule `Br.Br.CN(C(=O)c1ccc(C(F)(F)F)cc1)c1ccc(Oc2ccc3c(c2)cc(C(=O)N2CCN(Cc4ccc(C#N)cn4)CC2)n3C)nc1` [Example 570, N-(6-{2-[4-(5-Cyanopyridin-2-ylmethyl)piperazine-1-carbonyl]-1-methyl-1H-indol-5-yloxy}pyridin-3-yl)-N-methyl-4-trifluoromethyl-benzamide dihydrobromide] has a melting point of 211 to 215 °C.
Molecule `Br.CN(C(=O)c1ccc(C(F)(F)F)cc1)c1ccc(Oc2ccc3cc(C(=O)N4CCN(Cc5ccc(OCCF)cc5)CC4)n(C)c3c2)nc1` [Example 438, N-[6-(2-{4-[4-(2-Fluoroethoxy)benzyl]piperazine-1-carbonyl}-1-methyl-1H-indol-6-yloxy)pyridin-3-yl]-N-methyl-4-trifluoromethyl-benzamide hydrobromide] has a melting point of 215.3 to 216.6 °C.
For `Br.CC(C)CN1CCN(C(=O)c2cc3cc(Oc4ccc(NC(=O)c5ccc(Cl)c(Cl)c5)cn4)ccc3n2C)CC1` [Example 567, 3,4-Dichloro-N-{6-[2-(4-isobutylpiperazine-1-carbonyl)-1-methyl-1H-indol-5-yloxy]pyridin-3-yl}benzamide hydrobromide], the melting point was 251 to 254 °C.
With `Cn1c(C(=O)N2CCN(Cc3ccccn3)CC2)cc2cc(Oc3ncc(NC(=O)c4ccc(Cl)c(Cl)c4)cn3)ccc21` [Example 385, 3,4-Dichloro-N-{2-[1-methyl-2-(4-pyridin-2-ylmethylpiperazine-1-carbonyl)-1H-indol-5-yloxy]pyrimidin-5-yl}benzamide] the melting point was 161 to 163 °C.
`Br.CCCc1ccc(CN2CCN(C(=O)c3cc4ccc(Oc5ccc(NC(=O)c6ccc(C(F)(F)F)cc6)cn5)cc4n3C)CC2)cc1` [Example 478, N-(6-{1-Methyl-2-[4-(4-propylbenzyl)piperazine-1-carbonyl]-1H-indol-6-yloxy}pyridin-3-yl)-4-trifluoromethylbenzamide hydrobromide] gave a melting point of 267 to 268.2 °C.
`CC(C)Oc1ccc(CN2CCN(C(=O)c3cc4ccc(Oc5ccc(N(C)S(=O)(=O)c6ccc(Cl)c(Cl)c6)cn5)cc4n3C)CC2)cn1` [Example 517, 3,4-Dichloro-N-(6-{2-[4-(6-isopropoxypyridin-3-ylmethyl)-piperazine-1-carbonyl]-1-methyl-1H-indol-6-yloxy}pyridin-3-yl)-N-methylbenzenesulfonamide] showed a melting point of 179.1 to 179.7 °C.
For `C[C@H]1CN(Cc2ccccn2)CCN1C(=O)c1cc2cc(Oc3ccc(NC(=O)c4ccc(C(F)(F)F)cc4)cn3)ccc2n1C.O=C(O)C(=O)O.O=C(O)C(=O)O` [Example 397, N-{6-[1-Methyl-2-((S)-2-methyl-4-pyridin-2-ylmethylpiperazine-1-carbonyl)-1H-indol-5-yloxy]pyridin-3-yl}-4-trifluoromethyl-benzamide dioxalate], the melting point was 126 to 127 °C.
`Br.C[C@H]1CN(C(=O)c2cc3ccc(Oc4ccc(NC(=O)c5ccc(OC(F)(F)F)cc5)cn4)cc3n2C)CCN1Cc1ccc(OCC(F)(F)F)cc1` [Example 293, N-[6-(1-Methyl-2-{(S)-3-methyl-4-[4-(2,2,2-trifluoroethoxy)-benzyl]piperazine-1-carbonyl}-1H-indol-6-yloxy)pyridin-3-yl]-4-trifluoromethoxybenzamide hydrobromide] gave a melting point of 199.4 to 203.1 °C.
Work on `CCOc1ccc(CN2CCN(C(=O)c3cc4cc(Oc5ccc(N(C)C(=O)c6ccc(C(F)(F)F)cc6)cn5)ccc4n3C)CC2)cn1.O=C(O)/C=C\C(=O)O` [Example 423, N-(6-{2-[4-(6-Ethoxypyridin-3-ylmethyl)piperazine-1-carbonyl]-1-methyl-1H-indol-5-yloxy}pyridin-3-yl)-N-methyl-4-trifluoromethyl-benzamide maleate] yielded a melting point of 149 to 151 °C.
With `Br.Cn1c(C(=O)N2CCN(Cc3ccc(OCC(F)(F)F)cc3)CC2)cc2cc(Oc3ccc(NC(=O)c4ccc(C(F)(F)F)cc4)cn3)ccc21` [Example 463, N-[6-(1-Methyl-2-{4-[4-(2,2,2-trifluoroethoxy)benzyl]piperazine-1-carbonyl}-1H-indol-5-yloxy)pyridin-3-yl]-4-trifluoromethyl-benzamide hydrobromide] the melting point was 236.8 to 237.5 °C.
